Results published in paper PMC9571063 (Molecules, 2022).

Columns and labels:
Experiment in all cases: KINOMEscan
Type in all cases: binding
Conditions in all cases: read-out: Percent Control
[1] = target: T1, ACVR2A (Homo sapiens, UniProt P27037)
T1 construct: purchased Eurofins DiscoverX KINOMEscan (scanMAX 468)

[2] = target: T2, RIPK5 (Homo sapiens, UniProt Q6XUX3)
T2 construct: purchased Eurofins DiscoverX KINOMEscan (scanMAX 468)

[3] = target: T3, IRAK3 (Homo sapiens, UniProt Q9Y616)
T3 construct: purchased Eurofins DiscoverX KINOMEscan (scanMAX 468)
T3 sequence (Q9Y616 whole entry): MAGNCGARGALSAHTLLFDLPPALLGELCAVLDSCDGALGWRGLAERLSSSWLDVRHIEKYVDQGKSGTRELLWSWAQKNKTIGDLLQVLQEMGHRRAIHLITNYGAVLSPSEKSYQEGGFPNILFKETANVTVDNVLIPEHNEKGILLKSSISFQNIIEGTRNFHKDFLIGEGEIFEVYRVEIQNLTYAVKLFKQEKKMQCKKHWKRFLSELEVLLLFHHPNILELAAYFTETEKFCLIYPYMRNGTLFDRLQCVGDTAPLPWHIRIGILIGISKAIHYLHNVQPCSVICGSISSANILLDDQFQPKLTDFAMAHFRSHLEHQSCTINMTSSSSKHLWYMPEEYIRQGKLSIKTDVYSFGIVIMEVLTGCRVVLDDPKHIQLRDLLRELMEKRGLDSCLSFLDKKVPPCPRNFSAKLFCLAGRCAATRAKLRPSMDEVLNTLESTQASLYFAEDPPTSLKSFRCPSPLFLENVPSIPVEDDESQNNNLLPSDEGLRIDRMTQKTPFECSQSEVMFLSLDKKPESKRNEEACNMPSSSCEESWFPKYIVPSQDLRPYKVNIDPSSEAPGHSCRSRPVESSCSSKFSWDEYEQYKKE

[4] = target: T4, YSK4 (Homo sapiens, UniProt Q56UN5)
T4 construct: purchased Eurofins (KINOMEscan, DiscoverX)

[5] = target: T5, PCTK1 (Homo sapiens, UniProt Q00536)
T5 construct: purchased Eurofins DiscoverX KINOMEscan (scanMAX 468)

[6] = target: T6, LRRK2(G2019S) (Homo sapiens, UniProt Q5S007, G2019S)
T6 construct: purchased Eurofins DiscoverX KINOMEscan (scanMAX 468)

[7] = target: T7, LKB1 (Homo sapiens, UniProt Q15831)
T7 construct: purchased Eurofins DiscoverX KINOMEscan (scanMAX 468)

[8] = target: T8, PLK3 (Homo sapiens, UniProt Q9H4B4)
T8 construct: purchased Eurofins DiscoverX KINOMEscan (scanMAX 468)

[9] = target: T9, TRKB (Homo sapiens, UniProt Q16620)
T9 construct: purchased Eurofins DiscoverX KINOMEscan (scanMAX 468)

[10] = target: T10, ACVRL1 (Homo sapiens, UniProt P37023)
T10 construct: purchased Eurofins DiscoverX KINOMEscan (scanMAX 468)
T10 sequence (P37023 22-503): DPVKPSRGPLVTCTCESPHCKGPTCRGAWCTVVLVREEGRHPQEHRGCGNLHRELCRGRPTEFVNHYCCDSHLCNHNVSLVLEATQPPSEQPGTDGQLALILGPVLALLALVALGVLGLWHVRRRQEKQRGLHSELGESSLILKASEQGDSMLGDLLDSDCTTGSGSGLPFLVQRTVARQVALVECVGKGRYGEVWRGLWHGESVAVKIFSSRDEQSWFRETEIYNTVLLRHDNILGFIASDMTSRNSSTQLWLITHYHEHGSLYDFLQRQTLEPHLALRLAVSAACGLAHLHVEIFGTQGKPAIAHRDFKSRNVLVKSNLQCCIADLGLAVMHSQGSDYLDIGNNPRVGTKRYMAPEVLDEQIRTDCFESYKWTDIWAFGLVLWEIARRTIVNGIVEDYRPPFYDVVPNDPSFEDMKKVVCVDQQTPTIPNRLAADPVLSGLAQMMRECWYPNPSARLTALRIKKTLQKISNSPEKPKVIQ

[11] = target: T11, FGFR4 (Homo sapiens, UniProt P22455)
T11 construct: purchased Eurofins DiscoverX KINOMEscan (scanMAX 468)

[12] = target: T12, DMPK (Homo sapiens, UniProt Q09013)
T12 construct: purchased Eurofins DiscoverX KINOMEscan (scanMAX 468)

[13] = target: T13, DDR1 (Homo sapiens, UniProt Q08345)
T13 construct: purchased Eurofins DiscoverX KINOMEscan (scanMAX 468)

[14] = target: T14, PAK4 (Homo sapiens, UniProt O96013)
T14 construct: purchased Eurofins DiscoverX KINOMEscan (scanMAX 468)

[15] = target: T15, PRKCQ (Homo sapiens, UniProt Q04759)
T15 construct: purchased Eurofins DiscoverX KINOMEscan (scanMAX 468)

[16] = target: T16, BRAF(V600E) (Homo sapiens, UniProt P15056, V600E)
T16 construct: purchased Eurofins DiscoverX KINOMEscan (scanMAX 468)

[17] = target: T17, PIK3CA(E545K) (Homo sapiens, UniProt P42336, E545K)
T17 construct: purchased Eurofins DiscoverX KINOMEscan (scanMAX 468)
T17 sequence (P42336 whole entry E545K): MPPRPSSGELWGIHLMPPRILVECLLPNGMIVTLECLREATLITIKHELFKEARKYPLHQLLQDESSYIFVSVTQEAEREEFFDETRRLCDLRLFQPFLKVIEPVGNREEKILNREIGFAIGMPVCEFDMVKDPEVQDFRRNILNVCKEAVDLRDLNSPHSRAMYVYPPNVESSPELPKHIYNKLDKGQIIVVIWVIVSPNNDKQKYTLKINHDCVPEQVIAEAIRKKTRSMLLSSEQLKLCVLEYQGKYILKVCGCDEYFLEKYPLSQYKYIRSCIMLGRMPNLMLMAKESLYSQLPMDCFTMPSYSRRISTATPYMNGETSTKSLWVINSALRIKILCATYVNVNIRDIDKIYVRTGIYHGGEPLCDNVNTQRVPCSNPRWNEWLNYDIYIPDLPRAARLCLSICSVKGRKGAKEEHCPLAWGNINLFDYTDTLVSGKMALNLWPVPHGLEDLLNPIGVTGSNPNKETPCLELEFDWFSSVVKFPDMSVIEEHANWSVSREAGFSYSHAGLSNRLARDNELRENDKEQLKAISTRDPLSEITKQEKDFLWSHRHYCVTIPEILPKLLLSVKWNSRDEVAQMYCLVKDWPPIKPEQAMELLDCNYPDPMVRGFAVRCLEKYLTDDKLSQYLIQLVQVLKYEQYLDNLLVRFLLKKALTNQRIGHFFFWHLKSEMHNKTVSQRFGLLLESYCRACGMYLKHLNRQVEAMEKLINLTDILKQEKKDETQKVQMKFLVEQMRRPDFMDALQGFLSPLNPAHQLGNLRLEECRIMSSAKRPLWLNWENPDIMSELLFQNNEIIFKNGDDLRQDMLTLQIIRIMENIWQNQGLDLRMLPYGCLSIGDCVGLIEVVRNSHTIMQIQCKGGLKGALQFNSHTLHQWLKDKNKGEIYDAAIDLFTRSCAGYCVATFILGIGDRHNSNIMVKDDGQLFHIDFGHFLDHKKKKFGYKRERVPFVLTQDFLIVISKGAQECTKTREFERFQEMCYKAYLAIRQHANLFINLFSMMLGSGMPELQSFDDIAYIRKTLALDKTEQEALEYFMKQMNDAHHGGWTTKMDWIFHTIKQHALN

[18] = target: T18, ICK (Homo sapiens, UniProt Q9UPZ9)
T18 construct: purchased Eurofins DiscoverX KINOMEscan (scanMAX 468)

[19] = target: T19, CDKL5 (Homo sapiens, UniProt O76039)
T19 construct: purchased Eurofins DiscoverX KINOMEscan (scanMAX 468)

[20] = target: T20, SGK2 (Homo sapiens, UniProt Q9HBY8)
T20 construct: purchased Eurofins DiscoverX KINOMEscan (scanMAX 468)

[21] = target: T21, EPHB4 (Homo sapiens, UniProt P54760)
T21 construct: purchased Eurofins DiscoverX KINOMEscan (scanMAX 468)

[22] = target: T22, SYK (Homo sapiens, UniProt P43405)
T22 construct: purchased Eurofins DiscoverX KINOMEscan (scanMAX 468)

[23] = target: T23, MST4 (Homo sapiens, UniProt Q9P289)
T23 construct: purchased Eurofins DiscoverX KINOMEscan (scanMAX 468)

[24] = target: T24, PRKG1 (Homo sapiens, UniProt Q13976)
T24 construct: purchased Eurofins DiscoverX KINOMEscan (scanMAX 468)

[25] = target: T25, INSRR (Homo sapiens, UniProt P14616)
T25 construct: purchased Eurofins DiscoverX KINOMEscan (scanMAX 468)

[26] = target: T26, ABL1(Y253F)-phosphorylated (Homo sapiens, UniProt P00519, Y253F)
T26 construct: purchased Eurofins DiscoverX KINOMEscan (scanMAX 468)

[27] = target: T27, MAK (Homo sapiens, UniProt P20794)
T27 construct: purchased Eurofins DiscoverX KINOMEscan (scanMAX 468)

[28] = target: T28, TESK1 (Homo sapiens, UniProt Q15569)
T28 construct: purchased Eurofins DiscoverX KINOMEscan (scanMAX 468)

[29] = target: T29, PAK7 (Homo sapiens, UniProt Q9P286)
T29 construct: purchased Eurofins DiscoverX KINOMEscan (scanMAX 468)

[30] = target: T30, SBK1 (Homo sapiens, UniProt Q52WX2)
T30 construct: purchased Eurofins DiscoverX KINOMEscan (scanMAX 468)

[31] = target: T31, WNK1 (Homo sapiens, UniProt Q9H4A3)
T31 construct: purchased Eurofins DiscoverX KINOMEscan (scanMAX 468)

[32] = target: T32, PIK3CA(H1047Y) (Homo sapiens, UniProt P42336, H1047Y)
T32 construct: purchased Eurofins DiscoverX KINOMEscan (scanMAX 468)
T32 sequence (P42336 whole entry H1047Y): as the sequence (P42336 whole entry E545K) above, with K545E, H1047Y counted along it

[33] = target: T33, BIKE (Homo sapiens, UniProt Q9NSY1)
T33 construct: purchased Eurofins DiscoverX KINOMEscan (scanMAX 468)
T33 sequence (Q9NSY1 whole entry): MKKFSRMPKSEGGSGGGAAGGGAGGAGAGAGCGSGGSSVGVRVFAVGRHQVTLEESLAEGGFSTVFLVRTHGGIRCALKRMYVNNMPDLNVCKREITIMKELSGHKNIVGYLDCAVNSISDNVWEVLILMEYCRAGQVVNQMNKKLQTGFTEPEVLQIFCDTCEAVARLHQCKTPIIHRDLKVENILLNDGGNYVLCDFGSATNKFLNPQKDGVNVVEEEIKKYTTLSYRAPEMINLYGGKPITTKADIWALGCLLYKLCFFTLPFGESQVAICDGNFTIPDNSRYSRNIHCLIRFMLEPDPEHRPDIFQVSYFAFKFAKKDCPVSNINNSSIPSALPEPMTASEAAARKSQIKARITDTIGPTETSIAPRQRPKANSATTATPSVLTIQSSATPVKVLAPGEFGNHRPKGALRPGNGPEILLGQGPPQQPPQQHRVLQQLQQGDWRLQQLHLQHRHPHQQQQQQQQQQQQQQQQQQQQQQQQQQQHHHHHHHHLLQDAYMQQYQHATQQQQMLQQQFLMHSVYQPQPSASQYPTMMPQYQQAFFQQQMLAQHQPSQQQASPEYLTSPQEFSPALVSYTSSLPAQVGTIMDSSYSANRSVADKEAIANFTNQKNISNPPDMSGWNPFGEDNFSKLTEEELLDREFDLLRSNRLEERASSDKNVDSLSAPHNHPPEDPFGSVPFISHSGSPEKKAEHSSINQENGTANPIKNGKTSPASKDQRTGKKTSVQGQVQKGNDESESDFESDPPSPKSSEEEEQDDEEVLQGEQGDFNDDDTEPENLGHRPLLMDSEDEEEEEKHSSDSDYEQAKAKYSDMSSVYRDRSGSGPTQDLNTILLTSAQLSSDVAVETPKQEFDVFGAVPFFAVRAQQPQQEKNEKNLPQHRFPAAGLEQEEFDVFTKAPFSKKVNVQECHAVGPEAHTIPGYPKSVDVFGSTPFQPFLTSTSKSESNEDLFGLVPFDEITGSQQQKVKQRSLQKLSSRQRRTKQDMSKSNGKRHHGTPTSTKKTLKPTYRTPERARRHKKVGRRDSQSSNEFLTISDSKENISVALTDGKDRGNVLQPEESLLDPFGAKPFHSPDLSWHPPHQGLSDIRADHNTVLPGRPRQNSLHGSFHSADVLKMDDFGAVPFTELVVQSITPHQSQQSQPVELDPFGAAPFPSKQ

[34] = target: T34, RIPK1 (Homo sapiens, UniProt Q13546)
T34 construct: purchased Eurofins DiscoverX KINOMEscan (scanMAX 468)

[35] = target: T35, HIPK4 (Homo sapiens, UniProt Q8NE63)
T35 construct: purchased Eurofins DiscoverX KINOMEscan (scanMAX 468)

[36] = target: T36, TRPM6 (Homo sapiens, UniProt Q9BX84)
T36 construct: purchased Eurofins DiscoverX KINOMEscan (scanMAX 468)

[37] = target: T37, RPS6KA5(Kin.Dom.1-N-terminal) (Homo sapiens, UniProt O75582)
T37 construct: RPS6KA5(Kin.Dom.1-N-terminal); purchased Eurofins DiscoverX KINOMEscan (scanMAX 468)

[38] = target: T38, IRAK1 (Homo sapiens, UniProt P51617)
T38 construct: purchased Eurofins DiscoverX KINOMEscan (scanMAX 468)
T38 sequence (P51617 whole entry): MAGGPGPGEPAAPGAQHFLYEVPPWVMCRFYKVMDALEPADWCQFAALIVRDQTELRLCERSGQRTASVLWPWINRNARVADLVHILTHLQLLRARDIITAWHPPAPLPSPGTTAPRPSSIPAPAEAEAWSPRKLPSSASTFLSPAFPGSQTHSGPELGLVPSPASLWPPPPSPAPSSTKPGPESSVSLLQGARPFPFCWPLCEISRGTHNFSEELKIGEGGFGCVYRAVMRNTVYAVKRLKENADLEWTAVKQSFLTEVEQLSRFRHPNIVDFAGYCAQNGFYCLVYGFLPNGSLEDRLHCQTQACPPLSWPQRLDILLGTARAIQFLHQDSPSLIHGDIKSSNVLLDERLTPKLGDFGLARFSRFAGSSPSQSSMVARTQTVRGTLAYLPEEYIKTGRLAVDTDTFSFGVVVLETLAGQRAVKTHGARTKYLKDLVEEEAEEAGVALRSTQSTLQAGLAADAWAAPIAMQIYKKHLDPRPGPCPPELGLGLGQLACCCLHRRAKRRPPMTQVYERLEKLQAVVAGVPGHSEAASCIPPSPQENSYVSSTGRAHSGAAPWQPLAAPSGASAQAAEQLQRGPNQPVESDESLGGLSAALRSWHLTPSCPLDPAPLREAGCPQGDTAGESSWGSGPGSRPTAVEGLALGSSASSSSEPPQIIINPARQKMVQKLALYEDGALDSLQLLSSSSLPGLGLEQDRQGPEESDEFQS

[39] = target: T39, BUB1 (Homo sapiens, UniProt O43683)
T39 construct: purchased Eurofins DiscoverX KINOMEscan (scanMAX 468)

[40] = target: T40, PIK3CA(E545A) (Homo sapiens, UniProt P42336, E545A)
T40 construct: purchased Eurofins DiscoverX KINOMEscan (scanMAX 468)
T40 sequence (P42336 whole entry E545A): as the sequence (P42336 whole entry E545K) above, with K545A counted along it

[41] = target: T41, AXL (Homo sapiens, UniProt P30530)
T41 construct: purchased Eurofins DiscoverX KINOMEscan (scanMAX 468)

[42] = target: T42, NEK10 (Homo sapiens, UniProt Q6ZWH5)
T42 construct: purchased Eurofins DiscoverX KINOMEscan (scanMAX 468)

[43] = target: T43, VPS34 (Homo sapiens, UniProt Q8NEB9)
T43 construct: purchased Eurofins DiscoverX KINOMEscan (scanMAX 468)
T43 sequence (Q8NEB9 whole entry): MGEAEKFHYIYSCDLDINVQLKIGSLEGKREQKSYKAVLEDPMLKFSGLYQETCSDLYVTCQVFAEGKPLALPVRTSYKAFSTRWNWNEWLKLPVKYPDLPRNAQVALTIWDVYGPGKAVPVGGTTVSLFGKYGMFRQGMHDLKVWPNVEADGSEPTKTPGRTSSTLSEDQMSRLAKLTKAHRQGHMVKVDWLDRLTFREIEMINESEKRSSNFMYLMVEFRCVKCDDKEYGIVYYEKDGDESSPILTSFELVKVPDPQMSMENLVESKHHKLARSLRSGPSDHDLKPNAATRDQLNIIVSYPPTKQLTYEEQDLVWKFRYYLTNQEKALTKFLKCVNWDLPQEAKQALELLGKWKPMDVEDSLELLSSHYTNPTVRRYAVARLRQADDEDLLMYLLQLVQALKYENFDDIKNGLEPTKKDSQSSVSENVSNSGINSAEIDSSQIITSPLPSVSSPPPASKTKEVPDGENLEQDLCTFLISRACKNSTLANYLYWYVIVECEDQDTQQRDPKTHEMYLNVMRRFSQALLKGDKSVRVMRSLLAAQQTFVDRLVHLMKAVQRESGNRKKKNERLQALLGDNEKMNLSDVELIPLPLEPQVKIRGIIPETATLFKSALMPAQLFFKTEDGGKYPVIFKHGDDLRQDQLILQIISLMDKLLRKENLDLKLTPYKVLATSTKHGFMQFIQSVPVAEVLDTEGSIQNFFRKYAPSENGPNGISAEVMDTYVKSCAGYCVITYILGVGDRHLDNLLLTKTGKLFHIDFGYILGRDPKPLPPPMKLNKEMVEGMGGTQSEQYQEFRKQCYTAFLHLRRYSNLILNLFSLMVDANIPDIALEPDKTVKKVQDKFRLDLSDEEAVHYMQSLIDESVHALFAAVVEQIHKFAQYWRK

Cc1ccc(-n2cc(COc3cccc4cnc(Nc5cccc(Cl)c5)nc34)nn2)c([N+](=O)[O-])c1 [DB18]
remaining binding at 1 µM [1]: 100%
remaining binding at 1 µM [2]: 100%
remaining binding at 1 µM [3]: 59%
remaining binding at 1 µM [4]: 34%
remaining binding at 1 µM [5]: 94%
remaining binding at 1 µM [6]: 95%
remaining binding at 1 µM [7]: 100%
remaining binding at 1 µM [8]: 98%
remaining binding at 1 µM [9]: 86%
remaining binding at 1 µM [10]: 93%
remaining binding at 1 µM [11]: 100%
remaining binding at 1 µM [12]: 100%
remaining binding at 1 µM [13]: 100%
remaining binding at 1 µM [14]: 100%
remaining binding at 1 µM [15]: 100%
remaining binding at 1 µM [16]: 96%
remaining binding at 1 µM [17]: 66%
remaining binding at 1 µM [18]: 81%
remaining binding at 1 µM [19]: 100%
remaining binding at 1 µM [20]: 100%
remaining binding at 1 µM [21]: 100%
remaining binding at 1 µM [22]: 97%
remaining binding at 1 µM [23]: 97%
remaining binding at 1 µM [24]: 100%
remaining binding at 1 µM [25]: 100%
remaining binding at 1 µM [26]: 97%
remaining binding at 1 µM [27]: 100%
remaining binding at 1 µM [28]: 95%
remaining binding at 1 µM [29]: 92%
remaining binding at 1 µM [30]: 100%
remaining binding at 1 µM [31]: 100%
remaining binding at 1 µM [32]: 96%
remaining binding at 1 µM [33]: 99%
remaining binding at 1 µM [34]: 100%
remaining binding at 1 µM [35]: 17%
remaining binding at 1 µM [36]: 91%
remaining binding at 1 µM [37]: 100%
remaining binding at 1 µM [38]: 100%
remaining binding at 1 µM [39]: 97%
remaining binding at 1 µM [40]: 100%
remaining binding at 1 µM [41]: 87%
remaining binding at 1 µM [42]: 100%
remaining binding at 1 µM [43]: 100%
